In patent US7408060B2, “Nonsteroidal progesterone receptor modulators” (Schering AG, priority 2005, dated 2008):

What was measured:
[1] = biological target: T1, Progesterone Receptor PR-B (Homo sapiens, UniProt P06401); experiment: Antagonism of Progesterone Receptor PR-B, transactivation assay; format: cell-based; conditions: PR-B transactivation assay as in WO 02/054064; for IC50: read-out: Antagonistic activity IC50
T1 construct: expressed in transfected cells; From own knowledge of the cited Fuhrmann et al. 2000: SK-N-MC cells stably transfected with PR-B and an MMTV-luciferase reporter
T1 sequence (P06401 1-933): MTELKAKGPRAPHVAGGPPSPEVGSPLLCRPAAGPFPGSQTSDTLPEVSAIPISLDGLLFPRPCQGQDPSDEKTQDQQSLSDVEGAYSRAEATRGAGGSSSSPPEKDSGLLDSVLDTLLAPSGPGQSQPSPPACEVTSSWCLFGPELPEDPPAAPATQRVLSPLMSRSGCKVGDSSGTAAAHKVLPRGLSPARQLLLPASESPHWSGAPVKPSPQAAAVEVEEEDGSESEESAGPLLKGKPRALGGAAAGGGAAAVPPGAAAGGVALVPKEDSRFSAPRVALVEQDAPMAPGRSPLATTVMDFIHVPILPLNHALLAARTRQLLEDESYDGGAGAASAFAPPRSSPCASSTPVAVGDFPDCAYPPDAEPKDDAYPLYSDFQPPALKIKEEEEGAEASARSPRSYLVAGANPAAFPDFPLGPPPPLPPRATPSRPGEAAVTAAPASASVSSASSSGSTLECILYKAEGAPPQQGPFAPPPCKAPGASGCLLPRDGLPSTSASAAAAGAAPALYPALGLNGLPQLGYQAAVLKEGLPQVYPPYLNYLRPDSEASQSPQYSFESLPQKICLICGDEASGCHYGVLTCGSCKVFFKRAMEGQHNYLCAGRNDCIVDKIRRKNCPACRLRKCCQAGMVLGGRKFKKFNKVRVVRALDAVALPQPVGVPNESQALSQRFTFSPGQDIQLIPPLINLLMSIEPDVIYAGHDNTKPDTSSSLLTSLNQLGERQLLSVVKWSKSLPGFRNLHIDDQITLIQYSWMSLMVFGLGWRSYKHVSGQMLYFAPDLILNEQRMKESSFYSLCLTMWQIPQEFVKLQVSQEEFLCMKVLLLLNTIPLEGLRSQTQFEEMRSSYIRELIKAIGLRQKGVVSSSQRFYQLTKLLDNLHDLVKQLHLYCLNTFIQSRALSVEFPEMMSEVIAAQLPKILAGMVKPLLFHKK
Description: Antagonism of Progesterone Receptor PR-B
The transactivation assay is performed as described in WO 02/054064.

[2] = biological target: T1, Progesterone Receptor PR-B; experiment: Agonism of Progesterone Receptor PR-B, transactivation assay; format: cell-based; conditions: PR-B transactivation assay as in Fuhrmann et al.
Description: Agonism of Progesterone Receptor PR-B
The transactivation assay is performed as described in Fuhrmann et al. (Fuhrmann, U.; Hess-Stump, H.; Cleve, A.; Neef, G.; Schwede, W.; Hoffmann, J.; Fritzemeier, K.-H., Chwalisz, K.; Journal of Medicinal Chem., 43, 26, 2000, 5010-5016).

Antagonistic activity Efficacy [1] | IC50 [1] | Agonistic activity Efficacy [2] | EC50 ([2]; read-out: Agonistic activity EC50) | SMILES
82% | 4 nM | 11% | 2 nM | O=C1OCc2cc(NC(=O)C(O)(C#Cc3ccc(O)cc3)CC3(c4cc(C(F)(F)F)ccc4F)CC3)ccc21 (racemic) [Example 7, rac-5-{2-Hydroxy-2-[(4-hydroxyphenyl)ethinyl]-3-[1-(2-fluoro-5-trifluoromethylphenyl)-cyclopropyl]-propionylamino}phthalide]
96% | 3 nM | 3% |  | CCCC#CC(O)(CC1(c2cc(C(F)(F)F)ccc2F)CC1)C(=O)Nc1ccc2c(c1)COC2=O (racemic) [Example 9, rac-5-{2-Hydroxy-3-[1-(2-fluoro-5-trifluoromethylphenyl)-cyclopropyl]-2-(pentin-1-yl)-propionylamino}phthalide]
92% | 3 nM | 7% |  | O=C1OCc2cc(NC(=O)C(O)(C#CCO)CC3(c4cc(C(F)(F)F)ccc4F)CC3)ccc21 (racemic) [Example 13, rac-5-{2-Hydroxy-3-[1-(2-fluoro-5-trifluoromethylphenyl)-cyclopropyl]-2-[(3-hydroxy)propin-1-yl]-propionylamino}phthalide]
97% | 0.4 nM | 2% |  | O=C1OCc2cc(NC(=O)C(O)(C#Cc3ccccc3)CC3(c4cc(C(F)(F)F)ccc4F)CC3)ccc21 (single isomer, unassigned; (-)) [Example 3b, (−)-5-{2-Hydroxy-3-[1-(2-fluoro-5-trifluoromethylphenyl)-cyclopropyl]-2-(phenylethinyl)-propionylamino}phthalide]
